These results are taken from patent publication US20090181972A1, “Novel Inhibitors of Cysteine Proteases, the Pharmaceutical Compositions Thereof and their Therapeutic Applications” (priority 2005, published 2009).

Each structure is given as a SMILES string. pIC50: −log10 of the molar value.

The subject of test [1] is HCT116 colon cancer cells. Kind of test: HCT116 cell viability and proliferation assay (MTS). Type of test: cell-based. The following applies: Homo sapiens, HCT-116, 72 hours incubation, mean of three independent experiments, read-out: HCT116 GI50 D3. The method, then:
HCT116 colon cancer cells were obtained from ATCC (American Type Culture Collection), and maintained in Mc Coy's 5A medium containing 10% FBS, 3 mM glutamine and 1% penicillin/streptomycin. Cells were incubated at 37° C. in a humidified atmosphere containing 5% CO2.
Cell viability was assayed using the MTS technique in 96-well culture plates (CellTiter 96® Aqueous Non-Radioactive Cell Proliferation Assay, Promega) according to the manufacturer's instructions. MTS (3-(4,5-dimethyl-thiazol-2-yl)-5-(3-carboxymethoxyphenyl)-2-(4-sulfophenyl)-2H-tetra-zolium) is a MTT-derived tetrazolium that is reduced in metabolically active cells into a soluble, cell-permeant formazan. The amount of formazan, detected by its absorbance at 492 nm is proportional to the number of living, metabolically active cells.
10^3 HCT116 cells were seeded per well. 24 hours later, the medium was changed and the cells treated in triplicate with the following concentrations of each compound: 10 μM-3.33 μM-1.11 μM-370 nM-123 nM-41 nM-14 nM and 5 nM. The compounds were diluted in 100% DMSO, whose final concentration on cells was kept at 0.5%.
Cells were incubated with the compounds for 72 hours, and their viability then assayed by the addition of MTS for 2 hours. Absorbance at 492 nm was measured directly from the 96-well culture plates. G150 (Growth Inhibition 50) concentrations for each compound were calculated using a sigmoidal variable slope fit (Prism 4.0, Graphpad Softwares). Values represent mean of three independent experiments.

Test [2] relates to PC-3 prostate cancer cells. Kind of test: PC3 cell viability and proliferation assay (MTS). The test is classed as cell-based. The following applies: Homo sapiens, PC-3, 72 hours incubation, mean of three independent experiments, read-out: PC3 GI50 D3. The method, then: PC-3 prostate cancer cells were obtained from ATCC, and maintained in F-12K medium containing 7% FBS and 1% penicillin/streptomycin. Cells were incubated at 37° C. in a humidified atmosphere containing 5% CO2.
Cell viability was assayed using the MTS technique in 96-well culture plates (CellTiter 96® Aqueous Non-Radioactive Cell Proliferation Assay, Promega) according to the manufacturer's instructions. MTS (3-(4,5-dimethyl-thiazol-2-yl)-5-(3-carboxymethoxyphenyl)-2-(4-sulfophenyl)-2H-tetrazolium) is a MTT-derived tetrazolium that is reduced in metabolically active cells into a soluble, cell-permeant formazan. The amount of formazan, detected by its absorbance at 492 nm is proportional to the number of living, metabolically active cells.
2×10^3 PC3 cells were seeded per well. 24 hours later, the medium was changed and the cells treated in triplicate with the following concentrations of each compound: 10 μM-3.33 μM-1.11 μM-370 nM-123 nM-41 nM-14 nM and 5 nM. The compounds were diluted in 100% DMSO, whose final concentration on cells was kept at 0.5%.
Cells were incubated with the compounds for 72 hours, and their viability then assayed by the addition of MTS for 2 hours. Absorbance at 492 nm was measured directly from the 96-well culture plates. GI50 (Growth Inhibition 50) concentrations for each compound were calculated using a sigmoidal variable slope fit (Prism 4.0, Graphpad Softwares). Values represent mean of three independent experiments.

The target in a further test is T1, USP7 (Homo sapiens, UniProt Q93009).
T1 construct: His tag (pFastBac-HT vector) (N); made in house; host or cells: Sf9 or High Five insect cells (baculovirus)
Kind of test: USP7 activity assay. Type of test: biochemical. The following applies: 400 nM Ub-AMC, 152 pM enzyme; pre-incubated 30 minutes at 25° C., 60 minutes at 37° C.; sigmoidal fit; read-out: USP 7. From the text: The cDNA encoding USP7 was obtained by PCR amplification from placenta mRNA. USP7 cDNA was subcloned by PCR into a baculovirus expression vector (pFastBac-HT; Invitrogen). A cDNA encoding a mutated USP7 was generated by mutagenic PCR. The corresponding protein encodes a cysteine to alanine substitution at residue 223. The sequences were ascertained by sequencing of the entire open reading frame. Bacmids encoding USP7 were generated following DH10bac transposition. The corresponding bacmids were transfected into insect cells (Sf9). Viruses were recovered from culture supernatant and amplified twice. Insect cells (Sf9 or High Five; lnvitrogen) were infected for 72 hours. Total cell lysates were harvested and lyzed in lysis buffer (Tris HCl 50 mM pH 7.6; 0.75 % NP40; 500 mM NaCl; 10% glycerol; 1 mM DTT; 10 mM imidazole; Protease Inhibitor Cocktail; AEBSF 20 μg.ml^−1; Aprotinin 10 μg.ml^−1). Proteins were affinity purified on metal affinity resins (Talon Metal affinity resin; BD Biosciences). Bound materials were extensively washed in wash buffer (50 mM Sodium Phosphate pH 7.0; 300 mM NaCl; 10 mM imidazole; 0.5% Triton X-100; 10% glycerol) and eluted from the resin in 250 mM imidazole-containing wash buffer. Proteins were dialyzed in dialysis buffer (Tris HCl pH 7.6 20 mM; NaCl 200 mM; DTT 1 mM; EDTA 1 mM; 10% Glycerol). Proteins purifications were analyzed on 4-12% NuPAGE (Invitrogen).
USP7 was diluted in USP buffer (50 mM Tris HCl; 0.5 mM EDTA; 5 mM DTT; 0.01 % Triton X-100; Bovine Serum Albumin 0.05 mg.ml^−1 pH 7.6). Compounds stocks (100 mM) were stored at −20° C. in DMSO. Compounds were tested at the following final concentrations: 100 μM; 33.3 μM; 11.1 μM; 3.7 μM; 1.23 μM; 412 nM; 137 nM; 45.7 nM; 15.2 nM; 5 nM.
Reactions were performed as duplicates in Black LJL 96 well plates (HE microplates; Molecular Devices; 20 μl final reaction volume). The substrate concentration for USP7 was 400 nM Ub-AMC (Chem. Biol., 2003, 10, p. 837-846) (Boston Biochem). The concentrations of the enzyme (USP7) in specificity assays was 152 pM. The concentrations were determined in order to perform specificity assays under initial velocities at fixed substrate concentration. Compounds were pre-incubated with enzymes for 30 minutes at 25° C. Reactions were initiated by addition of substrate to the plates containing the enzymes (+/− compounds) diluted in assay buffer. Reactions were incubated for 60 minutes at 37° C. Reactions were stopped by adding acetic acid (100 mM final). Readings were performed on a Pherastar Fluorescent Reader (BMG). λ Emission 380 nm; λ Excitation=460 nm. Data (mean values +/− standard deviation) were analyzed as % of control (no compound) and plotted as percentage versus the Log of the compound concentration using GraphPad (Prism). Data were fitted to a sigmoidal model (variable slope).

T1 sequence (Q93009 whole entry): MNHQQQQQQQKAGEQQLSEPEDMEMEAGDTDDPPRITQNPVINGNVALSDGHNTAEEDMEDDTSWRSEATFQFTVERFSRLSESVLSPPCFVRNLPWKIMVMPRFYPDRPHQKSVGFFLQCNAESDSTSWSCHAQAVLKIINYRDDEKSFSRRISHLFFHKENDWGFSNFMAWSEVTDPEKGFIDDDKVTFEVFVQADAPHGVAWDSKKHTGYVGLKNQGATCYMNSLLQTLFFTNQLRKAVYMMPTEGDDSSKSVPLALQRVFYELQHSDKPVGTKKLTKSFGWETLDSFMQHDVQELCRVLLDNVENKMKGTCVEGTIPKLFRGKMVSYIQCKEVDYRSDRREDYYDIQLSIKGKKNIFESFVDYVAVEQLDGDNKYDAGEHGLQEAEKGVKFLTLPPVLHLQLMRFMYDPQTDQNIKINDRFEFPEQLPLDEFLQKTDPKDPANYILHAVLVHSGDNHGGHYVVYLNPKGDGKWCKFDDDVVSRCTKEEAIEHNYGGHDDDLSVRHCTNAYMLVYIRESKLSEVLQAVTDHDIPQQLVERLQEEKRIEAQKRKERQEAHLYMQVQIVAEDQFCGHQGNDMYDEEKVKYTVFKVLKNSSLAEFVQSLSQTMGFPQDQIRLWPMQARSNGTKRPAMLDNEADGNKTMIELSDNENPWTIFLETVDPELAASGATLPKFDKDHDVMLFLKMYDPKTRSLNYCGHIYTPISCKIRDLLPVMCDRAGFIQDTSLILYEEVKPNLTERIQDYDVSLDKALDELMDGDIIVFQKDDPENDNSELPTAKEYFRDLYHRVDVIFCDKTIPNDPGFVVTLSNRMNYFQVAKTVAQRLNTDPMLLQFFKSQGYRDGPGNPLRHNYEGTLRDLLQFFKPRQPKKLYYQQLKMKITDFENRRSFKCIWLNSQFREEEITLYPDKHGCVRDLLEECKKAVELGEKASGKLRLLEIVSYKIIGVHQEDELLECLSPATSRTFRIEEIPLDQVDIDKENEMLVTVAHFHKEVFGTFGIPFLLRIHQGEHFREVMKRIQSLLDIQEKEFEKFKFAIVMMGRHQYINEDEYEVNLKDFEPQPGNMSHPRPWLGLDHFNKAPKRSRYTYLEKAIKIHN

For the molecule `COCc1nnc2nc3c(nn12)-c1ccccc1C3=O` [Example 1i/B, 3-Methoxymethyl-1,2,3a,4,10-pentaaza-cyclopenta[b]fluoren-9-one], the GI50 (as a rule, the concentration giving 50% growth inhibition) in test [1] came out at 65 nM; in test [2], 238 nM.
In the case of `COCc1nnc2nc3c(nn12)C(=O)c1ccccc1-3` [Example 1i/A, 1-Methoxymethyl-2,3,4,10,10a-pentaaza-cyclopenta[b]fluoren-9-one], on USP7, the pIC50 is below 4.00. Moreover, the GI50 stood at 1280 nM in test [1] and 1750 nM in test [2].
Consider `Cc1nnc2nc3c(nn12)-c1ccc(Cl)cc1C3=O` [Example 3/B, 7-Chloro-3-methyl-1,2,3a,4,10-pentaaza-cyclopenta[b]fluoren-9-one], for which the GI50 in test [1] amounted to 98 nM; in test [2], 286 nM.
Consider `CCCc1nnc2nc3c(nn12)-c1ccccc1C3=O` [Example 1e/B, 3-Propyl-1,2,3a,4,10-pentaaza-cyclopenta[b]fluoren-9-one], for which the values for the GI50 in test [1] and in test [2] were 67 nM and 175 nM, respectively.
Regarding `Nc1nnc2nc3c(nn12)C(=O)c1ccccc1-3` [Example 1c/A, 1-Amino-2,3,4,10,10a-pentaaza-cyclopenta[b]fluoren-9-one], the GI50 in test [1] was found to be 8500 nM.
`CCCCc1nnc2nc3c(nn12)C(=O)c1ccccc1-3` [Example 1f/A, 1-Butyl-2,3,4,10,10a-pentaaza-cyclopenta[b]fluoren-9-one]: the GI50 in test [1] came to 1360 nM; in test [2], 3800 nM.
In the same order, the values of `CCc1nnc2nc3c(nn12)-c1ccccc1C3=O` [Example 1d/B, 3-Ethyl-1,2,3a,4,10-pentaaza-cyclopenta[b]fluoren-9-one] are 59 nM and 256 nM.
`CC(C)Cc1nnc2nc3c(nn12)-c1ccccc1C3=O` [Example 1g/B, 3-Isobutyl-1,2,3a,4,10-pentaaza-cyclopenta[b]fluoren-9-one]: the GI50 in test [1] amounted to 53 nM; in test [2], 162 nM.
Consider `CC(C)Cc1nnc2nc3c(nn12)C(=O)c1ccccc1-3` [Example 1g/A, 1-Isobutyl-2,3,4,10,10a-pentaaza-cyclopenta[b]fluoren-9-one], for which, on USP7, the pIC50 was below 4.00. For the same molecule, the values for the 50% growth inhibitory concentration (GI50) in test [1] and in test [2] were 3000 nM and 4000 nM, respectively.
The like results for `CCCc1nnc2nc3c(nn12)C(=O)c1ccccc1-3` [Example 1e/A, 1-Propyl-2,3,4,10,10a-pentaaza-cyclopenta[b]fluoren-9-one] were, in that order, below 4.00, 3100 nM and 4200 nM.
Regarding `Cc1nnc2nc3c(nn12)-c1ccccc1C3=O` [Example 1b/B, 3-Methyl-1,2,3a,4,10-pentaaza-cyclopenta[b]fluoren-9-one], the results for the GI50 in test [1] and in test [2] were 84 nM and 334 nM, respectively.
As for `CCc1nnc2nc3c(nn12)C(=O)c1ccccc1-3` [Example 1d/A, 1-Ethyl-2,3,4,10,10a-pentaaza-cyclopenta[b]fluoren-9-one], the GI50 in test [1] came to 1400 nM; in test [2], 5400 nM.
For the molecule `O=C1c2ccccc2-c2nn3c(CO)nnc3nc21` [Example 1h/B, 3-Hydroxymethyl-1,2,3a,4,10-pentaaza-cyclopenta[b]fluoren-9-one], the values for the GI50 in test [1] and in test [2] were 323 nM and 1440 nM, respectively.
The like results for `CCCCc1nnc2nc3c(nn12)-c1ccccc1C3=O` [Example 1f/B, 3-Butyl-1,2,3a,4,10-pentaaza-cyclopenta[b]fluoren-9-one] were, in that order, 40 nM and 96 nM.
